The conditions of data set [1]: cited from earlier work.
Data set [2] is described as follows: Dissolution of estriol in solvents for the organic phase of the organogel. It is filed as physicochemical. Conditions: propylene glycol alone. As to the method: The ratio of propylene glycol to LIP was 4:10. For the aqueous phase, amitriptyline HCL was dissolved in water, then PLURONIC® F-127 was added to give a 20% PLURONIC® solution. The two phases were mixed using a syringe to syringe transfer method which produce a relatively high shear mixing. The ratio of organic to aqueous phases was 1:2. This produced a stable organogel with final concentrations of 300 mcg/g estriol and 0.5% w/w amitriptyline. Stability may be increased by the addition of potassium sorbate.
To increase the dissolution of the estriol in the organic phase, and thereby improve bioavailability, a combination of solubiliser (diethylene glycol monoethyl ether) and propylene glycol was employed. […] This was then blended with the LIP to produce the organic phase.

Structures are written as SMILES. Structures can show the parent of a compound that is named as a salt. Where two headings read alike, the source gives them in different places.

For the molecule `CN(C)CCC=C1c2ccccc2CCc2ccccc21` [Amitriptyline HCL], the solubility in water in data set [1] (at pH 1.2) is 1000 mg/mL; in data set [1] (at pH 6.8), 0.9 mg/mL.
On to `C[C@]12CC[C@@H]3c4ccc(O)cc4CC[C@H]3[C@@H]1C[C@@H](O)[C@@H]2O` [Estriol], for which the solubility in water in data set [1] (water) is on record as 27 mg per litre. Moreover, the “dissolution in propylene glycol” value in data set [2] was “did not produce a clear solution”.
